# Experimental data taken from paper PMC7918738, “Microtubule Destabilizing Sulfonamides as an Alternative to Taxane-Based Chemotherapy” (International Journal of Molecular Sciences, 2021).
# What was measured:
# [1] = test system: OVCAR-3 ovarian carcinoma cells; parameters: method as in ref 14 (Bicaku, E. et al.); conditions: ref 14 (Bicaku, E. et al.); read-out: Antiproliferative Activity IC50 OVCAR-3; cited from earlier work
# SKOV3 cells = test: Annexin V-FITC/PI cell death quantification in SKOV3; assay type: cell-based, human; conditions: SKOV3, 72 h, 38 600 nM, 42 50 nM, 45 400 nM, paclitaxel 10 nM
# Description: To determine whether the cytotoxic/antiproliferative effect of the MDS was due to apoptosis induction, cells were treated with variable concentrations of the drug for 72 h or 6 days, stained with Annexin V-FITC (AnV) and propidium iodide (PI), and analyzed by flow cytometry. Double negative cells (AnV^−/PI^−) were classified as live cells (L), cells positive for AnV and negative for PI (AnV^+/PI^−) were considered in Early Apoptosis (EA), cells negative for AnV and positive for PI (AnV^−/PI^+) were considered necrotic (N), and double-positive cells (AnV^+/PI^+) as Late Apoptosis (LA). In all cases, the compounds were used at the same concentrations previously used in cell cycle studies (Table 5).
# MCF7, SKOV-3, and HeLa apoptotic cells were quantified using an Annexin V-FITC/PI apoptosis detection kit (Immunostep, Salamanca, Spain) according to the manufacturer’s guidelines. 1.5 mL/well of cells in the exponential growth phase at 2·10^4 cells/mL were seeded onto 12-well plates and left to attach overnight. After 24 h incubation, cells were treated with selected compounds. After 72 h (MCF7, SKOV-3, and HeLa) and 6 days (MCF7) post-treatment, attached and floating cells of treated and untreated wells were collected, centrifuged, resuspended in Annexin V binding buffer, and stained with Annexin V-FITC/PI. Cells were then incubated in darkness at room temperature for 15 min and a total of 30,000 cells were acquired and analyzed using the BD Accuri™ C6 Plus Flow Cytometer and Software (version 1.0.264.21, BD Biosciences, San José, CA, USA), respectively. Compounds were dissolved in DMSO and the final solvent concentration never exceeded 0.5% (v/v). Control wells included cells with 0.5% (v/v) DMSO.
# [2] = test system: MCF7 (breast adenocarcinoma); parameters: method as in PMID 7903152; conditions: read-out: Antiproliferative Activity IC50 MCF7; cited from earlier work
# [3] = test system: HT-29 (colon adenocarcinoma); parameters: method as in ref 52 (a number printed in a supplementary file, which may have a reference list of its own: not looked up in the article's list); conditions: read-out: Antiproliferative Activity IC50 HT-29; cited from earlier work
# [4] = parameters: method as in PMID 12734814, PMID 17116587, PMID 17613018; conditions: cited from earlier work
# [5] = test system: IGROV-1 ovarian carcinoma cells; test: Antiproliferative activity against IGROV-1 (MTT); assay type: cell-based; conditions: Homo sapiens, 72 h
# Description: (§1) The in vitro antiproliferative activity of compounds 38, 42, and 45 against a panel of five human ovarian carcinoma cell lines (SKOV3, IGROV-1, A2780, OVCAR-8, and OVCAR-3) was evaluated by a colorimetric method (Table 3) and compared with paclitaxel. […] For SKOV3, the potency reduction observed for paclitaxel together with a sustained or improved (42 with a 7 nM IC50 value) potency for MDS results in a more favorable profile of the MDS compared to paclitaxel.
# (§2) MCF7 (human breast carcinoma), SKOV-3 (human ovarian carcinoma), OVCAR-3 (human ovarian carcinoma), OVCAR-8 (human ovarian carcinoma), and HeLa (human cervical carcinoma) cell lines were cultured in Dulbecco’s Modified Eagle’s Medium (DMEM) (Gibco, Thermo Fischer Scientific) containing 10% (v/v) heat-inactivated fetal bovine serum (HIFBS) (Lonza-Cambrex, Karlskoga, Sweden), 2 mM L-glutamine (Lonza-Cambrex, Karlskoga, Sweden), 100 μg/mL streptomycin, and 100 IU/mL penicillin (Lonza-Cambrex) at 37 °C in humidified 95% air and 5% CO2. HT-29 (human colon carcinoma), IGROV-1 (human ovarian carcinoma), and A2780 (human ovarian carcinoma) cell lines were cultured in RPMI 1640 medium (Gibco, Thermo Fischer Scientific) supplemented with 10% HIFBS, 100 μg/mL streptomycin, and 100 IU/mL penicillin at 37 °C in humidified 95% air and 5% CO2 atmosphere. The presence of mycoplasma was routinely checked with MycoAlert kit (Lonza-Cambrex) and only mycoplasma-free cells were used in the experiments. Ovarian tumor cell lines were originally acquired from Dr Atanasio Pandiella from Centro de Investigación del Cáncer (CIC), Salamanca, Spain. HeLa, HT-29 and MCF7 tumor cell lines were provided by Dr Faustino Mollinedo from Centro de Investigaciones Biológicas Margarita Salas, Madrid, Spain.
# (§3) MCF7, HeLa, and HT-29 cell proliferation, when treated with the corresponding compounds, were determined using the XTT (sodium 3’-[1(phenylaminocarbonyl)-3,4-tetrazolium]-bis(4-methoxy-6-nitro)-benzenesulfonic acid hydrate) cell proliferation kit (Roche Molecular Biochemicals, Mannheim, Germany). […] The absorbance of the formazan product generated was measured at 450 nm using a multi-well plate reader. SKOV-3, OVCAR-3, OVCAR-8, IGROV-1, A-2780 cell proliferation, when treated with the corresponding compound, were determined using MTT (3-(4,5-dimethylthiazol-2-yl)-2,5-diphenyl-2H-tetrazolium bromide) (Sigma-Aldrich, St. Louis, MO, USA). […] Absorbance was measured at 570 nm in a plate reader (Ultra Evolution, Tecan, Männedorf, Suiza). […] After 24 h incubation, to allow cells to attach to the plates, all compounds were added at 1 µM concentration and the effect on the proliferation was evaluated 72 h post-treatment. […]
# [6] = test system: OVCAR-8 ovarian carcinoma cells; parameters: method as in ref 14 (Bicaku, E. et al.); conditions: ref 14 (Bicaku, E. et al.); read-out: Antiproliferative Activity IC50 OVCAR-8; cited from earlier work
# [7] = test system: HeLa (cervix epithelioid carcinoma); parameters: method as in PMID 7903152; conditions: read-out: Antiproliferative Activity IC50 HeLa; cited from earlier work
# [8] = test system: A2780 ovarian carcinoma cells; parameters: method as in ref 14 (Bicaku, E. et al.); conditions: ref 14 (Bicaku, E. et al.); read-out: Antiproliferative Activity IC50 A2780; cited from earlier work
# [9] = test system: SKOV3 ovarian carcinoma cells; test: Antiproliferative activity against SKOV3 (MTT); assay type: cell-based; conditions: Homo sapiens, SK-OV-3, 72 h
# Description: as §1, §2, §3
compound,measurement,setting,value
"CC(=O)O[C@H]1C(=O)[C@@]2(C)[C@H]([C@H](OC(=O)c3ccccc3)[C@]3(O)C[C@H](OC(=O)[C@H](O)[C@@H](NC(=O)c4ccccc4)c4ccccc4)C(C)=C1C3(C)C)[C@]1(OC(C)=O)CO[C@@H]1C[C@@H]2O [Paclitaxel, reference compound]",IC50,[1],17 nM
same,Annexin V-FITC/PI 72 h EA (early apoptosis),SKOV3 cells,3.8%
same,Annexin V-FITC/PI 72 h LA (late apoptosis),SKOV3 cells,3.1%
same,Annexin V-FITC/PI 72 h Live,SKOV3 cells,90.7%
same,Annexin V-FITC/PI 72 h Necrosis,SKOV3 cells,2.4%
same,Annexin V-positive SKOV3 cells,SKOV3 cells,7%
same,Annexin V-FITC/PI 72 h Live,SKOV3 cells; listed as paclitaxel,91%
same,IC50,[2],2.5 nM
same,IC50,[3],2.8 nM
same,Aqueous solubility,[4],<2 µg/mL
same,IC50,[5],39 nM
same,IC50,[6],6 nM
same,IC50,[7],2.6 nM
same,IC50,[8],3 nM
same,IC50,[9],81 nM
